Test results published in US8114880B2, “Piperidine or piperazine substituted tetrahydro-naphthalene-1-carboxylic acid MTP inhibiting compounds” (Janssen Pharmaceutica N.V., priority 2006, dated 2012).
pIC50: −log10 of the molar value.

Biological target: MTP (Homo sapiens, UniProt P55157)
Test: MTP assay (triglyceride transfer from donor to acceptor vesicles)
Format: biochemical
Conditions: MTP activity, percent triglyceride transfer from donor to acceptor vesicles, 37° C.
How it was run: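 Radiolabelled triglyceride transfer from donor vesicles (phosphatidylcholine, 7.5 mol % cardiolipin, 0.25 mol % glycerol tri[1-^14C]-oleate) to phosphatidylcholine acceptor vesicles with BSA, pH 7.5 Tris buffer; compounds in DMSO (0.13% final), 5 min preincubation at 37° C before MTP addition. Donor vesicles removed on DEAE-52; acceptor-supernatant ^14C counts give percent transfer.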

Sequence of MTP (P55157 19-894, species assumed): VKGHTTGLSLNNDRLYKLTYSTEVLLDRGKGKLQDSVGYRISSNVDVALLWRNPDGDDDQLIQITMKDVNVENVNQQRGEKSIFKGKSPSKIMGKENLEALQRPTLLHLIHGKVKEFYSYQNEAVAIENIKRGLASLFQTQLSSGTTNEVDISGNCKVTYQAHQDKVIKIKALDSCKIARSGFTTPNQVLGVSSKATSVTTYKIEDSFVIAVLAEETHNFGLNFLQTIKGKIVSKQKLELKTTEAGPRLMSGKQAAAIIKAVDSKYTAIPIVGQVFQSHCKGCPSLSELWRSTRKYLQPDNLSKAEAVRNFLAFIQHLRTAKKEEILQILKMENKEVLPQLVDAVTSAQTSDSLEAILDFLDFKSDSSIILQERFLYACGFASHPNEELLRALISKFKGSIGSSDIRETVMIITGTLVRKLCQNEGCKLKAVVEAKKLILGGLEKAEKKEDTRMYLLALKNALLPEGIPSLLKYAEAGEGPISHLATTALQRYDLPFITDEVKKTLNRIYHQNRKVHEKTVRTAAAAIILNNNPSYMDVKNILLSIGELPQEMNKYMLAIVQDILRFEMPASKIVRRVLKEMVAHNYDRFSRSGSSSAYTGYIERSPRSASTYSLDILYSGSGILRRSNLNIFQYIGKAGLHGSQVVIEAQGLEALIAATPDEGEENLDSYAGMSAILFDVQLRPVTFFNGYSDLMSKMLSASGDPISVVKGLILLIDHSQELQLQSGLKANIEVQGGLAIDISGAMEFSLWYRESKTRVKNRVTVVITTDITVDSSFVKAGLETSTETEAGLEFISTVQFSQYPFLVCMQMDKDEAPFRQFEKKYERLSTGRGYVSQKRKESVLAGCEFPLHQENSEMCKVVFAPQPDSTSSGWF
Sequence of MTP (P07237 18-508 partner, species assumed): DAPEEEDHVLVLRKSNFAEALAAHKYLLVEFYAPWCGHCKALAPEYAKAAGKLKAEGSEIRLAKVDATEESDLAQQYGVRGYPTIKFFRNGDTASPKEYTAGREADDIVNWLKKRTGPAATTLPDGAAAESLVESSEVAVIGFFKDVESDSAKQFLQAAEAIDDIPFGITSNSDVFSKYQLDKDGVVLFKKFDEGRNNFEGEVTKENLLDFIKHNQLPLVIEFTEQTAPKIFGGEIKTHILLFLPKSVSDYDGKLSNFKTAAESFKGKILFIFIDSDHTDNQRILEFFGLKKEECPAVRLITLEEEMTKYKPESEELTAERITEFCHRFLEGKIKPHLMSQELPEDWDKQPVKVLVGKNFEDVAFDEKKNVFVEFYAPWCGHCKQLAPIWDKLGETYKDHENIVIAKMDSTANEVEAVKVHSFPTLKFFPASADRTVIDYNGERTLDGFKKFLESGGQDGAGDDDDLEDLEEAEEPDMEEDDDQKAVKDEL

SMILES | pIC50
CCNC(=O)[C@]1(c2ccccc2)CC[C@@H](CN2CCC(NC(=O)c3ccccc3OC)CC2)c2ccccc21 [Co. No. 15] | 7.30
CCNC(=O)[C@]1(c2ccccc2)CC[C@@H](CN2CCC(NC(=O)c3ccccc3-c3ccc(C(F)(F)F)cc3)CC2)c2ccccc21 [Co. No. 16] | 8.49
C=CCOC(=O)[C@]1(c2ccccc2)CC[C@@H](C(=O)N2CCC(NC(=O)c3ccccc3-c3ccc(C(F)(F)F)cc3)CC2)c2ccccc21 [Co. No. 19] | 8.33
CCNC(=O)[C@]1(c2ccccc2)CC[C@@H](C(=O)N2CC[C@@H](NC(=O)c3ccccc3OC)[C@@H](OC)C2)c2ccccc21 [Co. No. 20] | 7.90
CCNC(=O)[C@]1(c2ccccc2)CC[C@@H](C(=O)N2CCC(NC(=O)c3ccc(Cl)cc3OC)CC2)c2ccccc21 [Co. No. 21] | 8.01
CCNC(=O)[C@]1(c2ccccc2)CC[C@@H](C(=O)N2CCC(NC(=O)c3ccccc3C)CC2)c2ccccc21 [Co. No. 22] | 7.54
CCNC(=O)[C@]1(c2ccccc2)CC[C@@H](C(=O)N2CC[C@@H](NC(=O)c3cc(Cl)c(N)cc3OC)[C@@H](OC)C2)c2ccccc21 [Co. No. 23] | 7.22
CCOC(=O)[C@]1(c2ccccc2)CC[C@@H](C(=O)N2CCC(NC(=O)c3cc(Cl)c(N)cc3OC)CC2)c2ccccc21 [Co. No. 24] | 7.26
CCOC(=O)[C@]1(c2ccccc2)CC[C@@H](C(=O)N2CCN(C(=O)c3ccccc3OC)CC2)c2ccccc21 [Co. No. 27] | 7.19
CCOC(=O)[C@]1(c2ccccc2)CC[C@@H](C(=O)N2CCN(C(=O)c3ccc(C)cc3-c3ccc(C(F)(F)F)cc3)CC2)c2ccccc21 [Co. No. 28] | < 7.00
CCOC(=O)[C@]1(c2ccccc2)CC[C@@H](C(=O)N2CCC(NC(=O)c3ccccc3)CC2)c2ccccc21 [Co. No. 33] | < 6.00
CCOC(=O)[C@@]1(c2ccccc2)CC[C@H](C(=O)N2CCC(NC(=O)c3ccccc3OC)CC2)c2ccccc21 [Co. No. 34] | 8.93
CCOC(=O)[C@]1(c2ccccc2)CC[C@@H](C(=O)N2CCC(NC(=O)c3ccccc3OC)CC2)c2ccccc21 [Co. No. 35] | 5.77
CCOC(=O)[C@@]1(c2ccccc2)CC[C@H](C(=O)N2CCC(NC(=O)c3ccccc3O)CC2)c2ccccc21 [Co. No. 36] | 8.46

Next, values leading:

pIC50 | SMILES
< 5.00 | COc1ccccc1C(=O)NC1CCN(C(=O)[C@H]2CC[C@](C(N)=O)(c3ccccc3)c3ccccc32)CC1 [Co. No. 40]
< 5.00 | CCOC(=O)[C@]1(c2ccccc2)CC[C@@H](C(=O)N2CCC(NC(=O)c3ccccc3O)CC2)c2ccccc21 [Co. No. 42]
8.62 | CCOC(=O)CNC(=O)[C@@]1(c2ccccc2)CC[C@H](C(=O)N2CCC(NC(=O)c3ccccc3OC)CC2)c2ccccc21 [Co. No. 47]
7.88 | CCOC(=O)CNC(=O)[C@]1(c2ccccc2)CC[C@@H](C(=O)N2CCC(NC(=O)c3ccccc3OC)CC2)c2ccccc21 [Co. No. 48]
7.74 | COC(=O)[C@]1(c2ccccc2)CC[C@@H](C(=O)N2CCC(NC(=O)c3cccc(OC)c3OC)CC2)c2ccccc21 [Co. No. 49]
7.93 | COC(=O)[C@]1(c2ccccc2)CC[C@@H](C(=O)N2CCC(NC(=O)c3cc(OC)ccc3OC)CC2)c2ccccc21 [Co. No. 50]
7.89 | COC(=O)[C@]1(c2ccccc2)CC[C@@H](C(=O)N2CCC(NC(=O)c3cc(C)ccc3OC)CC2)c2ccccc21 [Co. No. 51]
8.02 | COC(=O)[C@]1(c2ccccc2)CC[C@@H](C(=O)N2CCC(NC(=O)c3cc(OC)ccc3OCC(F)(F)F)CC2)c2ccccc21 [Co. No. 53]
7.99 | COC(=O)[C@]1(c2ccccc2)CC[C@@H](C(=O)N2CCC(NC(=O)c3ccccc3OC(F)F)CC2)c2ccccc21 [Co. No. 54]

System: HepG2 cells
Test: Quantification of the secretion of ApoB
Format: cell-based
Conditions: Homo sapiens, HepG2, 24 h, 24 hours of incubation, pIC50 = -log IC50
Protocol: HepG2 cells were cultured in 24-well plates in MEM Rega 3 containing 10% fetal calf serum. At 70% confluency, the medium was changed and the test compound or carrier (DMSO, 0.4% final concentration) was added. After 24 hours of incubation, the medium was transferred to Eppendorf tubes and cleared by centrifugation. A sheep antibody directed against either apoB was added to the supernatant and the mixture was kept at 8° C. for 24 hours. Then, rabbit anti-sheep antibody was added and the immune complex was allowed to precipitate for 24 hours at 8° C. The immunoprecipitate was pelleted by centrifugation for 25 minutes at 1320 g and washed twice with a buffer containing 40 mM Mops, 40 mM NaH2PO4, 100 mM NaF, 0.2 mM DTT, 5 mM EDTA, 5 mM EGTA, 1% Triton-X-100, 0.5% sodium deoxycholate (DOC), 0.1% SDS, 0.2 μM leupeptin and 0.2 μM PMSF. Radioactivity in the pellet was quantified by liquid scintillation counting. The IC50 values are usually converted to pIC50 values (=−log IC50 value) for ease of use.

SMILES | pIC50
CCNC(=O)[C@]1(c2ccccc2)CC[C@@H](CN2CCC(NC(=O)c3ccccc3OC)CC2)c2ccccc21 [Co. No. 15] | 6.73
CCNC(=O)[C@]1(c2ccccc2)CC[C@@H](CN2CCC(NC(=O)c3ccccc3-c3ccc(C(F)(F)F)cc3)CC2)c2ccccc21 [Co. No. 16] | 7.82
C=CCOC(=O)[C@]1(c2ccccc2)CC[C@@H](C(=O)N2CCC(NC(=O)c3ccccc3-c3ccc(C(F)(F)F)cc3)CC2)c2ccccc21 [Co. No. 19] | 8.12
CCNC(=O)[C@]1(c2ccccc2)CC[C@@H](C(=O)N2CC[C@@H](NC(=O)c3ccccc3OC)[C@@H](OC)C2)c2ccccc21 [Co. No. 20] | 7.64
CCNC(=O)[C@]1(c2ccccc2)CC[C@@H](C(=O)N2CCC(NC(=O)c3ccc(Cl)cc3OC)CC2)c2ccccc21 [Co. No. 21] | 7.56
CCNC(=O)[C@]1(c2ccccc2)CC[C@@H](C(=O)N2CCC(NC(=O)c3ccccc3C)CC2)c2ccccc21 [Co. No. 22] | 6.81
CCNC(=O)[C@]1(c2ccccc2)CC[C@@H](C(=O)N2CC[C@@H](NC(=O)c3cc(Cl)c(N)cc3OC)[C@@H](OC)C2)c2ccccc21 [Co. No. 23] | 6.63
CCOC(=O)[C@]1(c2ccccc2)CC[C@@H](C(=O)N2CCC(NC(=O)c3cc(Cl)c(N)cc3OC)CC2)c2ccccc21 [Co. No. 24] | 6.70
CCOC(=O)[C@]1(c2ccccc2)CC[C@@H](C(=O)N2CCN(C(=O)c3ccccc3OC)CC2)c2ccccc21 [Co. No. 27] | 6.11
CCOC(=O)[C@]1(c2ccccc2)CC[C@@H](C(=O)N2CCN(C(=O)c3ccc(C)cc3-c3ccc(C(F)(F)F)cc3)CC2)c2ccccc21 [Co. No. 28] | 6.48
CCOC(=O)[C@]1(c2ccccc2)CC[C@@H](C(=O)N2CCC(NC(=O)c3ccccc3)CC2)c2ccccc21 [Co. No. 33] | < 6.00
CCOC(=O)[C@@]1(c2ccccc2)CC[C@H](C(=O)N2CCC(NC(=O)c3ccccc3OC)CC2)c2ccccc21 [Co. No. 34] | 8.42
CCOC(=O)[C@]1(c2ccccc2)CC[C@@H](C(=O)N2CCC(NC(=O)c3ccccc3OC)CC2)c2ccccc21 [Co. No. 35] | 5.27
CCOC(=O)[C@@]1(c2ccccc2)CC[C@H](C(=O)N2CCC(NC(=O)c3ccccc3O)CC2)c2ccccc21 [Co. No. 36] | 7.93

Continued, values first:

pIC50 | SMILES
7.15 | COc1ccccc1C(=O)NC1CCN(C(=O)[C@H]2CC[C@](C(N)=O)(c3ccccc3)c3ccccc32)CC1 [Co. No. 40]
6.00 | CCOC(=O)[C@]1(c2ccccc2)CC[C@@H](C(=O)N2CCC(NC(=O)c3ccccc3O)CC2)c2ccccc21 [Co. No. 42]
7.57 | CCOC(=O)CNC(=O)[C@@]1(c2ccccc2)CC[C@H](C(=O)N2CCC(NC(=O)c3ccccc3OC)CC2)c2ccccc21 [Co. No. 47]
5.01 | CCOC(=O)CNC(=O)[C@]1(c2ccccc2)CC[C@@H](C(=O)N2CCC(NC(=O)c3ccccc3OC)CC2)c2ccccc21 [Co. No. 48]
6.20 | COC(=O)[C@]1(c2ccccc2)CC[C@@H](C(=O)N2CCC(NC(=O)c3cccc(OC)c3OC)CC2)c2ccccc21 [Co. No. 49]
7.79 | COC(=O)[C@]1(c2ccccc2)CC[C@@H](C(=O)N2CCC(NC(=O)c3cc(OC)ccc3OC)CC2)c2ccccc21 [Co. No. 50]
8.02 | COC(=O)[C@]1(c2ccccc2)CC[C@@H](C(=O)N2CCC(NC(=O)c3cc(C)ccc3OC)CC2)c2ccccc21 [Co. No. 51]
7.21 | COC(=O)[C@]1(c2ccccc2)CC[C@@H](C(=O)N2CCC(NC(=O)c3cc(OC)ccc3OCC(F)(F)F)CC2)c2ccccc21 [Co. No. 53]
7.18 | COC(=O)[C@]1(c2ccccc2)CC[C@@H](C(=O)N2CCC(NC(=O)c3ccccc3OC(F)F)CC2)c2ccccc21 [Co. No. 54]
